Reference: ChEMBL document CHEMBL4118066, “QSAR-driven design, synthesis and discovery of potent chalcone derivatives with antitubercular activity” (Eur J Med Chem, 2017)
Values after ≈ are worked out from the molar mass of the structure shown.

Key:
[1] = tested on: Mycobacteroides abscessus; assay: Antimycobacterial activity against Mycobacterium abscessus ATCC 19977 after 7 days under normoxic condition by microplate Alamar blue assay; assay type: functional; conditions: ATCC 19977, 168 h
Mycobacterium avium = assay: Antimycobacterial activity against Mycobacterium avium ATCC 15769 after 7 days under normoxic condition by microplate Alamar blue assay; assay type: functional; conditions: ATCC 15769, 168 h
Mycobacteroides chelonae = assay: Antimycobacterial activity against Mycobacterium chelonae ATCC 35752 after 7 days under normoxic condition by microplate Alamar blue assay; assay type: functional; conditions: ATCC 35752, 168 h
Escherichia coli = assay: Antibacterial activity against Escherichia coli ATCC 25922 after 16 to 20 hrs; assay type: functional
Mycobacterium kansasii = assay: Antimycobacterial activity against Mycobacterium kansasii ATCC 12478 after 7 days under normoxic condition by microplate Alamar blue assay; assay type: functional; conditions: ATCC 12478, 168 h
Mycobacterium marinum = assay: Antimycobacterial activity against Mycobacterium marinum ATCC 927 after 7 days under normoxic condition by microplate Alamar blue assay; assay type: functional; conditions: ATCC 927, 168 h
Staphylococcus aureus = assay: Antibacterial activity against Staphylococcus aureus ATCC 29213 after 16 to 20 hrs; assay type: functional
Candida albicans = assay: Antifungal activity against Candida albicans ATCC 90028 after 36 to 48 hrs; assay type: functional
[2] = tested on: Mycobacterium tuberculosis; assay: Antitubercular activity against Mycobacterium tuberculosis H37Rv ATCC 27294 treated for 10 days under hypoxic condition followed by 28 hrs of normoxic recovery; assay type: functional
[3] = tested on: Mycolicibacterium smegmatis; assay: Antimycobacterial activity against Mycobacterium smegmatis ATCC MC2155 after 7 days under normoxic condition by microplate Alamar blue assay; assay type: functional; conditions: str. MC2 155, 168 h
[4] = tested on: Mycobacterium tuberculosis; assay: microbe, parasite or virus in culture; assay type: functional; conditions: H37Rv ATCC 27294, 168 h
Description: Antitubercular activity against Mycobacterium tuberculosis H37Rv ATCC 27294 after 7 days under normoxic condition by microplate Alamar blue assay

in vitro = conditions: monkey, Vero cells
Description: Selectivity index, ratio of IC50 for African green monkey Vero cells to MIC90 for Mycobacterium tuberculosis H37Rv ATCC 27294 under normoxic condition

| Structure (SMILES) | MIC90 [1] [µM] | MIC90 (Mycobacterium avium) [µM] | MIC90 (Mycobacteroides chelonae) [µM] | MIC90 (Escherichia coli) [µM] | MIC90 (Mycobacterium kansasii) [µM] | MIC90 (Mycobacterium marinum) [µM] | MIC90 (Staphylococcus aureus) [µM] | MIC90 (Candida albicans) [µM] | MIC90 [2] [µM] | MIC90 [3] [µM] | MIC90 [4] [µM] | selectivity ratio (in vitro) |
| --- | --- | --- | --- | --- | --- | --- | --- | --- | --- | --- | --- | --- |
| O=C(/C=C/c1ccc([N+](=O)[O-])s1)c1ccc(C2CCCCC2)cc1 | > 10 | 5.99 (≈ 2.05 µg/mL) | > 10 | > 10 | 9.26 (≈ 3.16 µg/mL) | > 10 | > 10 | > 10 | 5.75 (≈ 1.96 µg/mL) | > 10 | > 10 | – |
| O=C(/C=C/c1ccc([N+](=O)[O-])o1)c1ccc(N2CCOCC2)cc1 | – | – | – | > 10 | – | – | 1.19 (≈ 0.391 µg/mL) | > 10 | 9.85 (≈ 3.23 µg/mL) | > 10 | 0.81 (≈ 0.266 µg/mL) | 123 |
| Cc1ccc(C(=O)/C=C/c2ccc([N+](=O)[O-])s2)cc1 | > 10 | 2.3 (≈ 0.629 µg/mL) | > 10 | > 10 | 1.54 (≈ 0.421 µg/mL) | > 10 | > 10 | > 10 | 2.05 (≈ 0.56 µg/mL) | > 10 | 1.87 (≈ 0.511 µg/mL) | – |
| CSc1ccc(C(=O)/C=C/c2ccc([N+](=O)[O-])o2)cc1 | > 10 | 1.39 (≈ 0.402 µg/mL) | 4.66 (≈ 1.35 µg/mL) | > 10 | 0.3 (≈ 0.0868 µg/mL) | > 10 | 0.58 (≈ 0.168 µg/mL) | > 10 | 5.07 (≈ 1.47 µg/mL) | 4.81 (≈ 1.39 µg/mL) | 0.66 (≈ 0.191 µg/mL) | 61 |
| CC1(C)S[C@@H]2[C@H](NC(=O)[C@H](N)c3ccccc3)C(=O)N2[C@H]1C(=O)O [AMPICILLIN] | – | – | – | 1.18 (≈ 0.412 µg/mL) | – | – | 0.25 (≈ 0.0874 µg/mL) | – | – | – | – | – |
| O=C(/C=C/c1ccc(Cl)s1)c1ccc(-n2ccnc2)cc1 | > 10 | > 10 | > 10 | > 10 | 9.17 (≈ 2.89 µg/mL) | > 10 | > 10 | > 10 | 9.75 (≈ 3.07 µg/mL) | > 10 | 9.29 (≈ 2.92 µg/mL) | – |
| O=C(/C=C/c1ccc([N+](=O)[O-])o1)c1ccc(-n2ccnc2)cc1 | – | – | – | 3.18 (≈ 0.984 µg/mL) | – | – | 0.34 (≈ 0.105 µg/mL) | > 10 | 6.94 (≈ 2.15 µg/mL) | > 10 | 1.05 (≈ 0.325 µg/mL) | 94 |
| Cc1ccccc1C(=O)/C=C/c1ccc([N+](=O)[O-])o1 | > 10 | 3.04 (≈ 0.782 µg/mL) | > 10 | > 10 | 1.16 (≈ 0.298 µg/mL) | > 10 | 1.09 (≈ 0.28 µg/mL) | 6.36 (≈ 1.64 µg/mL) | 4.59 (≈ 1.18 µg/mL) | 9.5 (≈ 2.44 µg/mL) | 0.57 (≈ 0.147 µg/mL) | 41 |
| O=C(/C=C/c1ccc([N+](=O)[O-])s1)c1ccc(-n2ccnc2)cc1 | 4.7 (≈ 1.53 µg/mL) | 2.1 (≈ 0.683 µg/mL) | 1.63 (≈ 0.53 µg/mL) | > 10 | 0.56 (≈ 0.182 µg/mL) | > 10 | 0.28 (≈ 0.0911 µg/mL) | > 10 | 1.73 (≈ 0.563 µg/mL) | 4.39 (≈ 1.43 µg/mL) | 0.19 (≈ 0.0618 µg/mL) | 225 |
| O=C(/C=C/c1ccc([N+](=O)[O-])o1)c1cccc(Br)c1 | > 10 | 2.95 (≈ 0.95 µg/mL) | > 10 | > 10 | 1.65 (≈ 0.531 µg/mL) | > 10 | 1.68 (≈ 0.541 µg/mL) | > 10 | 5.65 (≈ 1.82 µg/mL) | 4.84 (≈ 1.56 µg/mL) | 1.32 (≈ 0.425 µg/mL) | 52 |
| CC(C)(C)c1ccc(C(=O)/C=C/c2ccc([N+](=O)[O-])o2)cc1 | – | – | – | > 10 | – | – | > 10 | > 10 | > 10 | > 10 | 0.35 (≈ 0.105 µg/mL) | 284 |
| O=C(/C=C/c1ccc([N+](=O)[O-])o1)c1ccc(N2CCCC2)cc1 | > 10 | > 10 | > 10 | > 10 | 0.39 (≈ 0.122 µg/mL) | > 10 | > 10 | > 10 | 4.3 (≈ 1.34 µg/mL) | > 10 | > 10 | – |
| CN(C)c1ccc(/C=C/C(=O)c2ccc(-c3ccccc3)cc2)cc1 | > 10 | > 10 | > 10 | > 10 | > 10 | > 10 | > 10 | > 10 | > 10 | > 10 | > 10 | – |
| CSc1ccc(C(=O)/C=C/c2ccco2)cc1 | > 10 | > 10 | > 10 | > 10 | > 10 | > 10 | > 10 | > 10 | > 10 | > 10 | > 10 | – |
